Data published in US20240279278A1, “NMU RECEPTOR 2 AGONISTS” (Boehringer Ingelheim International GmbH, priority 2023, published 2024).
Residues, ends and D or L forms follow the SMILES beside them.

Experiments:
human NMUR1 receptor = molecular target: T1, human NMUR1 receptor (Homo sapiens, UniProt Q9HB89); test: IP1 Gq HTRF assay, activation of human NMUR1 in buffer; format: cell-based; conditions: CHO-K1 cells expressing human NMUR1, stimulation buffer with 0.1% BSA; read-out: EC50 (hNMUR1) buffer
T1 construct: expressed in transfected cells; host or cells: CHO-K1
T1 sequence (Q9HB89 1-426): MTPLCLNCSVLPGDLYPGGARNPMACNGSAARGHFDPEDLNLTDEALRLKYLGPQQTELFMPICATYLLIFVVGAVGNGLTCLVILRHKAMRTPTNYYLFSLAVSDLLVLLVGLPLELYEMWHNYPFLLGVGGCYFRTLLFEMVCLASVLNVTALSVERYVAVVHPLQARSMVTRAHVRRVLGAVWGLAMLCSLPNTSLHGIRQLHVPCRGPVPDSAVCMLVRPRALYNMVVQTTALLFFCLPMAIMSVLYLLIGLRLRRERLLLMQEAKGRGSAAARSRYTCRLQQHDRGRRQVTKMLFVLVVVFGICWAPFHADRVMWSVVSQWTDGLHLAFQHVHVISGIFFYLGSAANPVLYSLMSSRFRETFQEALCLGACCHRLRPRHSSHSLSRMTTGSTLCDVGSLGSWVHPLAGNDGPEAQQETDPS
Procedure, shortened: (§1)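 IP-One HTRF competition (665/620 nm ratio) read after 1 h agonist exposure at 37 °C in pH 7.4 HEPES/HBSS stimulation buffer containing 50 mM LiCl, 0.1% BSA, 1% DMSO. Cells: CHO-K1 stably expressing human NMUR2 or NMUR1. EC50 by 4-parameter nonlinear regression of 8-point curves.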

human NMUR2 receptor [1] = molecular target: T2, human NMUR2 receptor (Homo sapiens, UniProt Q9GZQ4); test: Radioligand binding competition assay (RLB), human NMUR2 receptor binding (SPA, [125I]-Neuromedin U-25); set-up: host or cells: CHO-K1; conditions: CHO-K1 hNMUR2 cell membranes, 4 hours at RT
T2 sequence (Q9GZQ4 whole entry): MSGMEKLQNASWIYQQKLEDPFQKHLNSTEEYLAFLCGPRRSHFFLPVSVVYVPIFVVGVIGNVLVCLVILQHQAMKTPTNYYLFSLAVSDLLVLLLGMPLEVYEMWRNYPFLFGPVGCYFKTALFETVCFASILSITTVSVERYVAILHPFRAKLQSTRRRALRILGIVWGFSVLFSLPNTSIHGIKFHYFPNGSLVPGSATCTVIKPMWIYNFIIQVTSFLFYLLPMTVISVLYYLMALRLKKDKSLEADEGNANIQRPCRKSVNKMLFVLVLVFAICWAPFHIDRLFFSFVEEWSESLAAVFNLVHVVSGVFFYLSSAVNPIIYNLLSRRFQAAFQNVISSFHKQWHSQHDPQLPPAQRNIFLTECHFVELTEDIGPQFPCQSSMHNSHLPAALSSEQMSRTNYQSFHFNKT
Text: Example 1: Radioligand Binding Competition Assay (RLB) Human NMUR2 Receptor Binding
The test is based on membranes prepared from a Human NMUR2/Apoaequorin Stable Cell Line (Creative Biogene, Cat. No. CSC-RG1309).
Cell Line Description: CHO-NMUR2 cell line is clonally derived from a CHO-K1 cell line, which has been transfected with a bicistronic expression plasmid containing the sequence coding for the human neuromedin U receptor 2 (AF242874.1). MOSAIC-ID: CL16550616.
Membrane preparation: Cells were broken by nitrogen cavitation (900 psi, 1 hour). Intact cells were removed by centrifugation (400 rcf (relative centrifugal force), 10 minutes, 4° C.) before the crude membrane fraction was collected by ultracentrifugation (20.000 rcf, 1 hour, 4° C.).
2) Human NMUR2 Receptor Binding Assay (Radioligand: [125I]-Neuromedin U-25 (Human))
In this Scintillation Proximity Assay (SPA) design, the membranes immobilize directly to the PVT-WGA-PEI type A beads (polyethyleneimine treated polyvinyltoluene beads coupled to wheatgerm agglutinin, Perkin Elmer) via interactions of wheat germ agglutinate and glycosylated membrane structures. Thereby the radioactively la-belled ligand, bound to NMUR2 receptors on the membrane, comes in close proximity to the solid scintillator of the PVT bead. Radioactive human neuromedin U-25 then stimulates the scintillant to emit light. In contrast, radioligand not bound to the receptor is too distant from the bead to elicit a signal.
For the Scintillation Proximity Assay the CHO-K1 hNMUR2 cell membranes and SPA-beads are diluted to concentrations, which assure a robust signal to background ratio. The SPA incubation buffer consists of 25 mM Hepes (pH=7.0), 5 mM MgCl2, 1 mM CaCl2, 10 ug/mL Saponine and 0.1% bovine serum albumin and is used for all dilutions.
Final assay setup in 96-well plate: 20 μL of 10× test compound dilutions+40 μL of 5× [125l]-Neuromedin U-25 (1× approx. 30 pM; 2000 μCi/mmol)+60 μL membrane dilution (approx. 2.5 μg membrane protein)+80 μL SPA bead dilution (0.75 mg).
The assay is incubated for 4 hours at RT, including controls for specific binding where no displacer is added and non-specific binding by adding unlabeled hNMU-25 at 100 nM. Bound radioactivity is determined by scintillation counting (MicroBeta Trilux 1450, Perkin Elmer, detection of 125I decay). […] The system assumes one binding site with no relevant radioligand depletion (<10%) and that the binding is reversible and at equilibrium.

human NMUR2 receptor [2] = molecular target: T2, human NMUR2 receptor; test: IP1 Gq HTRF assay, activation of human NMUR2 in buffer; format: cell-based; set-up: expressed in transfected cells; host or cells: CHO-K1; conditions: CHO-K1 cells expressing human NMUR2, stimulation buffer with 0.1% BSA; read-out: EC50 (hNMUR2) buffer
Procedure, shortened: as §1

CCCC[C@H](NC(=O)[C@H](CC(C)C)N(C)C(=O)[C@H](Cc1ccccc1)NC(=O)[C@H](Cc1ccc(O)cc1)NC(=O)CN1CCN(CCNC(=O)CN(C)C(=O)CN(C)C(=O)CN(C)C(=O)CN(C)C(=O)CN(C)C(=O)CN(C)C(=O)CN(C)C(=O)CN(C)C(=O)CN(C)C(=O)CC[C@H](NC(=O)CC[C@H](NC(=O)CC[C@H](NC(=O)CCCCCCCCCCCCCCCCC(=O)O)C(=O)O)C(=O)O)C(=O)O)CC1)C(=O)N[C@@H](CCN)C(=O)N1CCC[C@H]1C(=O)N[C@@H](CCCNC(=N)N)C(=O)NCC(N)=O [Compound 24, C18DA-gGlu3-Sar9-AEPipAc-Tyr-Phe-NMeLeu-Nle-Dbu-Pro-Arg-Gly-NH2] (HELM PEPTIDE1{[O=C(O)CCCCCCCCCCCCCCCCC(=O)[*:2]].[gGlu].[gGlu].[gGlu].[Sar].[Sar].[Sar].[Sar].[Sar].[Sar].[Sar].[Sar].[Sar].[O=C(CN1CCN(CCN[*:1])CC1)[*:2]].Y.F.[meL].[Nle].[Dab].P.R.G.[am]}$$$$V2.0)
EC50 (human NMUR1 receptor): 1000 nM | Ki (human NMUR2 receptor [1]): 52.3 nM | EC50 (human NMUR2 receptor [2]): 1.4 nM

CCCC[C@H](NC(=O)[C@H](CC(C)C)N(C)C(=O)[C@H](Cc1ccccc1)NC(=O)[C@H](Cc1ccc(O)cc1)NC(=O)CN1CCN(CCNC(=O)CN(C)C(=O)CN(C)C(=O)CN(C)C(=O)CN(C)C(=O)CN(C)C(=O)CN(C)C(=O)CN(C)C(=O)CN(C)C(=O)CN(C)C(=O)CN(C)C(=O)CN(C)C(=O)CN(C)C(=O)CC[C@H](NC(=O)CC[C@H](NC(=O)CC[C@H](NC(=O)CCCCCCCCCCCCCCCCC(=O)O)C(=O)O)C(=O)O)C(=O)O)CC1)C(=O)N[C@@H](CCCNC(=N)N)C(=O)N1CCC[C@H]1C(=O)N[C@@H](CCCNC(=N)N)C(=O)NCC(N)=O [Compound 25, C18DA-gGlu3-Sar12-AEPipAc-Tyr-Phe-NMeLeu-Nle-Arg-Pro-Arg-Gly-NH2]
EC50 (human NMUR1 receptor): 200 nM | Ki (human NMUR2 receptor [1]): 23.1 nM | EC50 (human NMUR2 receptor [2]): 1.1 nM

CCCC[C@H](NC(=O)[C@H](CC(C)C)N(C)C(=O)[C@H](Cc1ccccc1)NC(=O)[C@H](Cc1ccc(O)cc1)NC(=O)CN1CCN(CCNC(=O)CN(C)C(=O)CN(C)C(=O)CN(C)C(=O)CN(C)C(=O)CN(C)C(=O)CN(C)C(=O)CN(C)C(=O)CN(C)C(=O)CN(C)C(=O)CN(C)C(=O)CN(C)C(=O)CN(C)C(=O)CN(C)C(=O)CN(C)C(=O)CN(C)C(=O)CC[C@H](NC(=O)CC[C@H](NC(=O)CC[C@H](NC(=O)CCCCCCCCCCCCCCCCC(=O)O)C(=O)O)C(=O)O)C(=O)O)CC1)C(=O)N[C@@H](CCN)C(=O)N1CCC[C@H]1C(=O)N[C@@H](CCCNC(=N)N)C(=O)NCC(N)=O [Compound 26, C18DA-gGlu3-Sar15-AEPipAc-Tyr-Phe-NMeLeu-Nle-Dbu-Pro-Arg-Gly-NH2] (HELM PEPTIDE1{[O=C(O)CCCCCCCCCCCCCCCCC(=O)[*:2]].[gGlu].[gGlu].[gGlu].[Sar].[Sar].[Sar].[Sar].[Sar].[Sar].[Sar].[Sar].[Sar].[Sar].[Sar].[Sar].[Sar].[Sar].[Sar].[O=C(CN1CCN(CCN[*:1])CC1)[*:2]].Y.F.[meL].[Nle].[Dab].P.R.G.[am]}$$$$V2.0)
EC50 (human NMUR1 receptor): > 1000 nM | Ki (human NMUR2 receptor [1]): 48.1 nM | EC50 (human NMUR2 receptor [2]): 1.5 nM

CCCC[C@H](NC(=O)[C@H](CC(C)C)N(C)C(=O)[C@H](Cc1ccccc1)NC(=O)[C@H](Cc1ccc(O)cc1)NC(=O)CN1CCN(CCNC(=O)CN(C)C(=O)CN(C)C(=O)CN(C)C(=O)CN(C)C(=O)CN(C)C(=O)CN(C)C(=O)CN(C)C(=O)CN(C)C(=O)CN(C)C(=O)CN(C)C(=O)CN(C)C(=O)CN(C)C(=O)CC[C@H](NC(=O)CC[C@H](NC(=O)CC[C@H](NC(=O)CCCCCCCCCCCCCCCCC(=O)O)C(=O)O)C(=O)O)C(=O)O)CC1)C(=O)N[C@@H](CCN)C(=O)N1CCC[C@H]1C(=O)N[C@@H](CCCNC(=N)N)C(=O)NCC(N)=O [Compound 27, C18DA-gGlu3-Sar12-AEPipAc-Tyr-Phe-NMeLeu-Nle-Dbu-Pro-Arg-Gly-NH2]
EC50 (human NMUR1 receptor): 1700 nM | Ki (human NMUR2 receptor [1]): 23.4 nM | EC50 (human NMUR2 receptor [2]): 1.2 nM

CCCC[C@H](NC(=O)[C@H](CC(C)C)N(C)C(=O)[C@H](Cc1ccccc1)NC(=O)[C@H](Cc1ccc(O)cc1)NC(=O)CN1CCN(CCNC(=O)CN(C)C(=O)CN(C)C(=O)CN(C)C(=O)CN(C)C(=O)CN(C)C(=O)CN(C)C(=O)CN(C)C(=O)CN(C)C(=O)CN(C)C(=O)CC[C@H](NC(=O)CC[C@H](NC(=O)CC[C@H](NC(=O)CCCCCCCCCCCCCCCCC(=O)O)C(=O)O)C(=O)O)C(=O)O)CC1)C(=O)N[C@@H](CCN)C(=O)N(C)[C@@H](C)C(=O)N[C@@H](CCCNC(=N)N)C(=O)NCC(N)=O [Compound 28, C18DA-gGlu3-Sar9-AEPipAc-Tyr-Phe-NMeLeu-Nle-Dbu-NMeAla-Arg-Gly-NH2] (HELM PEPTIDE1{[O=C(O)CCCCCCCCCCCCCCCCC(=O)[*:2]].[gGlu].[gGlu].[gGlu].[Sar].[Sar].[Sar].[Sar].[Sar].[Sar].[Sar].[Sar].[Sar].[O=C(CN1CCN(CCN[*:1])CC1)[*:2]].Y.F.[meL].[Nle].[Dab].[meA].R.G.[am]}$$$$V2.0)
EC50 (human NMUR1 receptor): > 1000 nM | Ki (human NMUR2 receptor [1]): 56.2 nM | EC50 (human NMUR2 receptor [2]): 1.4 nM

CCCC[C@H](NC(=O)[C@H](CC(C)C)N(C)C(=O)[C@H](Cc1ccccc1)NC(=O)[C@H](Cc1ccc(O)cc1)NC(=O)CN1CCN(CCNC(=O)CN(C)C(=O)CN(C)C(=O)CN(C)C(=O)CN(C)C(=O)CN(C)C(=O)CN(C)C(=O)CN(C)C(=O)CN(C)C(=O)CN(C)C(=O)CN(C)C(=O)CN(C)C(=O)CN(C)C(=O)CC[C@H](NC(=O)CC[C@H](NC(=O)CC[C@H](NC(=O)CCCCCCCCCCCCCCCCC(=O)O)C(=O)O)C(=O)O)C(=O)O)CC1)C(=O)N[C@@H](CCN)C(=O)N(C)[C@@H](C)C(=O)N[C@@H](CCCNC(=N)N)C(=O)NCC(N)=O [Compound 38, C18DA-gGlu3-Sar12-AEPipAc-Tyr-Phe-NMeLeu-Nle-Dbu-NMeAla-Arg-Gly-NH2]
EC50 (human NMUR1 receptor): > 1000 nM | Ki (human NMUR2 receptor [1]): 33.8 nM | EC50 (human NMUR2 receptor [2]): 1.9 nM

CCCC[C@H](NC(=O)[C@H](CC(C)C)N(C)C(=O)[C@H](Cc1ccccc1)NC(=O)[C@H](Cc1ccc(O)cc1)NC(=O)CN1CCN(CCNC(=O)CN(C)C(=O)CN(C)C(=O)CN(C)C(=O)CN(C)C(=O)CN(C)C(=O)CN(C)C(=O)CN(C)C(=O)CN(C)C(=O)CN(C)C(=O)CN(C)C(=O)CN(C)C(=O)CN(C)C(=O)CN(C)C(=O)CN(C)C(=O)CN(C)C(=O)CC[C@H](NC(=O)CC[C@H](NC(=O)CC[C@H](NC(=O)CCCCCCCCCCCCCCCCCCC(=O)O)C(=O)O)C(=O)O)C(=O)O)CC1)C(=O)N[C@@H](CCN)C(=O)N1CCC[C@H]1C(=O)N[C@@H](CCCNC(=N)N)C(=O)NCC(N)=O [Compound 42, C20DA-gGlu3-Sar15-AEPipAc-Tyr-Phe-NMeLeu-Nle-Dbu-Pro-Arg-Gly-NH2] (HELM PEPTIDE1{[O=C(O)CCCCCCCCCCCCCCCCCCC(=O)[*:2]].[gGlu].[gGlu].[gGlu].[Sar].[Sar].[Sar].[Sar].[Sar].[Sar].[Sar].[Sar].[Sar].[Sar].[Sar].[Sar].[Sar].[Sar].[Sar].[O=C(CN1CCN(CCN[*:1])CC1)[*:2]].Y.F.[meL].[Nle].[Dab].P.R.G.[am]}$$$$V2.0)
EC50 (human NMUR1 receptor): 1500 nM | Ki (human NMUR2 receptor [1]): 23.7 nM | EC50 (human NMUR2 receptor [2]): 3.2 nM
